Target: HAT p300 (histone acetyltransferase p300) (Homo sapiens, UniProt Q09472)
Test: HAT activity kit assay (Biovision K332), inhibition of HAT activity of p300
Assay type: biochemical
Conditions: for HAT p300 activity inhibitory effect: diluted to 100 μM, FIG. 9
Description: Candidates 1 to 67, which are HAT inhibitors manufactured based on the PCAF structure, and HAT-24, HAT-26, and HAT-28 were diluted to 100 μM, and the degree of inhibition of HAT activity of p300 (inhibitory activity) was then determined using a kit for measuring HAT activity (Biovision, Cat No. K332, U.S.A) according to the method provided by the manufacturer. Here, the tissue was treated with C646 (HAT inhibitor) as a positive control.
Candidates 1 to 14 having a good HAT activity inhibitory effect in Section were diluted to concentrations of 0.5 μM, 1 μM, 10 μM, and 100 μM. Thereafter, the degree of inhibition of HAT activity was determined in the same manner as in Section.
Synthesis Examples 1 to 19 were diluted to 100 μM, and the degree of inhibition of HAT p300 activity was then determined in the same manner as in Section. Here, the tissues were treated with C646 and Candidate 12 (HAT-12) as the control, instead of Synthesis Examples 1 to 19.

Sequence of HAT p300 (histone acetyltransferase p300) (Q09472 whole entry): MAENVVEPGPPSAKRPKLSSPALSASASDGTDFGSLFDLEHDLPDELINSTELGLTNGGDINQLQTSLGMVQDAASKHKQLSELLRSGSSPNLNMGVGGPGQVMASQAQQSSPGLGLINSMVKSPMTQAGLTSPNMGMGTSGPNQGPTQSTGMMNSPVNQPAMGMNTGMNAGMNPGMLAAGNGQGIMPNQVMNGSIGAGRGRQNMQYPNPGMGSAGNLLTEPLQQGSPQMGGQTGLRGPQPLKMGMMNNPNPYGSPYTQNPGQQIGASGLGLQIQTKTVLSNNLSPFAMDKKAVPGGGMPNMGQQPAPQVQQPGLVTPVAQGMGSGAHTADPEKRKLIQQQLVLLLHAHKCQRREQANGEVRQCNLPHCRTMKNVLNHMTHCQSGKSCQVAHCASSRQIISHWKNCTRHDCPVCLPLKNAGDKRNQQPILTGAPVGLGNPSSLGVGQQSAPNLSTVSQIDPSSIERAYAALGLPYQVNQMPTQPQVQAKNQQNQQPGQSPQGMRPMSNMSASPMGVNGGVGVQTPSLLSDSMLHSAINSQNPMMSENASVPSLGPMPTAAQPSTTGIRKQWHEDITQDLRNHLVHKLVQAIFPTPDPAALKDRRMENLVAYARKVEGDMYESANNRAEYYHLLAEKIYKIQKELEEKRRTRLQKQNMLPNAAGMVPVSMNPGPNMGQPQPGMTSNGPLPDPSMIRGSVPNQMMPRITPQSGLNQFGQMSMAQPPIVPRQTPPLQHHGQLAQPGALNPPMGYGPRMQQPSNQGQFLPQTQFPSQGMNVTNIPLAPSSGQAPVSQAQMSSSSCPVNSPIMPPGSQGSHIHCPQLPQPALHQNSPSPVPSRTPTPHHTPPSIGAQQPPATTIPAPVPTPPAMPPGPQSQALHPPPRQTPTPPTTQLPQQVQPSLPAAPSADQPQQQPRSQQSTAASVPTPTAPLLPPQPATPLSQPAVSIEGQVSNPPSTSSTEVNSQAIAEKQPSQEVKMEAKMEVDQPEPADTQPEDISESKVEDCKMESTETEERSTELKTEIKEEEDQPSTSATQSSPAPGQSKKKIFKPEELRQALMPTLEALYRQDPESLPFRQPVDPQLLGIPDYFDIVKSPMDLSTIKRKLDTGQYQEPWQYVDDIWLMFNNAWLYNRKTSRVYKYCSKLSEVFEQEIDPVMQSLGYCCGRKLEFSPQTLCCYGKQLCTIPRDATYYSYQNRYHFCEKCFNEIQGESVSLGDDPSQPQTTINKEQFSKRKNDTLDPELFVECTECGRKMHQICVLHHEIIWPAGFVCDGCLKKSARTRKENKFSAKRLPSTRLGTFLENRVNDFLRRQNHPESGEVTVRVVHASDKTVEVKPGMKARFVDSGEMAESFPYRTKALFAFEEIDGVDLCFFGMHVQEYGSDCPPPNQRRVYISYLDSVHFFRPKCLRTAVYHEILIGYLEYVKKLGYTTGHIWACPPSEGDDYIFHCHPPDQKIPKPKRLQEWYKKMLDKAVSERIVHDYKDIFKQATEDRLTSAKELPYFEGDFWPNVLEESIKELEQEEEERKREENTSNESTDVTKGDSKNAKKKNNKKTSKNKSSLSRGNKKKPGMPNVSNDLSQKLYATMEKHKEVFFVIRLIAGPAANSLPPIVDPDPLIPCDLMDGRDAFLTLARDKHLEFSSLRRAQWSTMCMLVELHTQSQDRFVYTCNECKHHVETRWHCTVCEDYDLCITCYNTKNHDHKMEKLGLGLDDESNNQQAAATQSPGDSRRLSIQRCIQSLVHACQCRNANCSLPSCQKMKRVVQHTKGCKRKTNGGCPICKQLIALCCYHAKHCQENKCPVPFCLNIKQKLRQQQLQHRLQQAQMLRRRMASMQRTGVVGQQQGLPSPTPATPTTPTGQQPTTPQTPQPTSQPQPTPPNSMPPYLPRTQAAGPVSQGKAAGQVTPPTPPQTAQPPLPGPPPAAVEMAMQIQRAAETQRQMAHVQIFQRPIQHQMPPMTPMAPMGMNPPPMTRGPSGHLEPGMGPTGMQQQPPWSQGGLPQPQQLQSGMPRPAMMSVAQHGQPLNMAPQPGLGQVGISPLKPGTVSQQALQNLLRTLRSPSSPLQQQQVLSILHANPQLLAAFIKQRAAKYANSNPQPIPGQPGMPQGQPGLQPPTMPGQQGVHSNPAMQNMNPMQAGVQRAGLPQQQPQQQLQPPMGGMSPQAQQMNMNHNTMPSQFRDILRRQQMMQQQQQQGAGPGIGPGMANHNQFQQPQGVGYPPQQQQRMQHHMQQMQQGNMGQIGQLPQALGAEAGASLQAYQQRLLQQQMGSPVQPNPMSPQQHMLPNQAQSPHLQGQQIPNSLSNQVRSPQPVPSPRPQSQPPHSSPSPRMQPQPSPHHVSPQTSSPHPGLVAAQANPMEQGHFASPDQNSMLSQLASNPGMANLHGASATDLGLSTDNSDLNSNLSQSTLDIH

COc1cc(/C=N/Cc2ccc(C(=O)O)cc2)cc(Cl)c1OCc1cccc(Cl)c1 [Synthesis Example 19, (E)-4-(((3-chloro-4-((3-chlorobenzyl)oxy)-5-methoxybenzylidene)amino)methyl)benzoic acid]
HAT p300 activity inhibitory effect: ≥ 90%

COc1cc(/C=N/CCN2CCCCC2)cc(Cl)c1OCc1cccc(Cl)c1 [Candidate 12]
HAT p300 activity inhibitory effect: approximately 80%
IC50 (secondary screening, tested at 0.5, 1, 10 and 100 μM): 0.953 µM

From patent US20220194911A1, “NOVEL COMPOUND FOR INHIBITING HISTONE ACETYLTRANSFERASE P300 AND ANTIFIBROTIC COMPOSITION COMPRISING SAME” (REFURE LIFE SCIENCE INC., priority 2019, published 2022)
